Reference: patent publication US20160310523A1, “USE OF OXYGEN-CONTAINING GAS SOURCE” (China Medical University, priority 2015, published 2016)

Assays:
[1] = Inactivity (sedation) of rats during the forced swimming test
Description: Prostaglandin and serotonin are previously implicated in stress-mediated blood-brain barrier disruption. To examine whether prostaglandin and serotonin could contribute to opening of the blood-brain barrier, the rats are treated with indomethacin (10 mg/kg, i.p.) and cyproheptadine (15 mg/kg, i.p.) and then performing the forced swimming test, wherein indomethacincan can reduce the synthesis of prostaglandin and cyproheptadine competes with serotonin in that it acts on a postsynaptic receptor.

blood-brain barrier [2] = assay: Forced swim test, EBD extravasation after drug treatment; format: in vivo, rats; details: EIPA 5 mg/kg i.p.; zoniporide 20 mg/kg i.p.; FIG. 4C
Description: In a forced swim test, the rats are forced to swim in an opaque tank with limited spatial information, wherein a diameter, a height and a depth of the opaque tank is 43 cm, 54 cm and 29 cm, respectively.
To examine whether the NHE contributes to metabolic blood-brain barrier disruption during stressful activity, we administer either a vehicle (i.p.) or an NHE inhibitor (i.p.) to EBD-treated rats prior to forced swimming and quantify the EBD extravasation into the brain.

blood-brain barrier [3] = assay: Claustrophobia test in gas chamber, EBD extravasation; format: in vivo, rats; details: breathing 100% O2 vs normal air, P>0.05, FIG. 6A
Excerpt: FIGS. 6A and 6B show the effects of increased pO2 on the blood-brain barrier permeability. FIG. 6A is a quantitative diagram showing the detection amount of EBD in different districts of the brain of the rats in the claustrophobia test. FIG. 6B is a quantitative diagram showing the detection amount of EBD in the blood of the rats in the claustrophobia test. The rats are placed in gas chambers and allowed to breathe either normal air or 100% O2, and then performing the claustrophobia test.

blood-brain barrier [4] = assay: Hypoventilation respiratory treatment, EBD extravasation; format: in vivo, rats; details: hypoventilation (50 BPM) with 100% O2; FIGS. 8A, 8B
Description: A regional metabolic acidosis is caused by a local brain activity, but more global […] can also be induced by a hypoventilation. Given that increased blood pO2 substantially potentiates the blood-brain barrier opening by CO2/H^+, we further examine whether increasing pO2 in the rats subjected to the hypoventilation could open the blood-brain barrier in this example. The rats are injected with EBD first, and the rats are grouped and treated with a respiratory treatment by different levels of ventilation. Next, quantifying the EBD extravasation into different districts of the brain of the rats after the respiratory treatment. The respiratory treatment are a physiologically rate, the hypoventilation and a general ventilation, wherein a respiratory rate of the physiologically rate is 90 BPM (breath per minute) by using a tracheotomy, the respiratory rate of the general ventilation is 80 BPM, and the respiratory rate of the hypoventilation is 50 BPM. […]
The data of the respiratory treatment is shown in Table 4 as follows and FIG. 8A-8C. […] FIG. 8B is a quantitative diagram showing the detection amount of EBD in different districts of the brain and the blood of the rats in the hypoventilation. FIG. 8C is a quantitative diagram showing the detection amount of EBD in different districts of the brain and the blood of the rats increased a ventilation rate.

[5] = indomethacin 10 mg/kg i.p., cyproheptadine 15 mg/kg i.p., EIPA 5 mg/kg i.p.

Structure (SMILES): CCN(c1nc(N)c(C(=O)NC(=N)N)nc1Cl)C(C)C [EIPA, Ethylisopropyl amiloride]
- number of the rats that remain inactive during the forced swimming test [1, 5]: 0/6
- sedation at the dose used [1, 5]: not sedative
- EBD extravasation into the motor cortex during the forced swimming test (blood-brain barrier [2]): attenuates

Structure (SMILES): N=C(N)NC(=O)c1cnn(-c2cccc3ncccc23)c1C1CC1 [zoniporide]
- EBD extravasation into the motor cortex during the forced swimming test (blood-brain barrier [2]): attenuates

Structure (SMILES): COc1ccc2c(c1)c(CC(=O)O)c(C)n2C(=O)c1ccc(Cl)cc1 [indomethacin]
- sedation at the dose used ([1]; rat, in vivo): marked sedation

Structure (SMILES): O=O [100% O2]
- increase in blood-brain barrier permeability (EBD extravasation in motor cortex, caudate/putamen, hippocampus) (blood-brain barrier [3]): not significant
- blood-brain barrier opening (blood-brain barrier [4]): opens the blood-brain barrier

Structure (SMILES): CN1CCC(=C2c3ccccc3C=Cc3ccccc32)CC1 [cyproheptadine]
- sedation at the dose used ([1]; rat, in vivo): marked sedation
